In PMC7271538 (Frontiers in Microbiology, 2020):
Counter-ions that a name gives are not always drawn. Like-named read-outs stand apart in the source and are kept apart here.

Molecular target: T1, prolyl oligopeptidase (rPOPLi) (Leishmania infantum, UniProt A4ICB5)
T1 construct: gene LINJ_36_7060; full-length, recombinant from E. coli (pET-15b)
Assay: fluorogenic assay, single concentration […]
Assay type: biochemical

T1 sequence (A4ICB5 entry or part of it): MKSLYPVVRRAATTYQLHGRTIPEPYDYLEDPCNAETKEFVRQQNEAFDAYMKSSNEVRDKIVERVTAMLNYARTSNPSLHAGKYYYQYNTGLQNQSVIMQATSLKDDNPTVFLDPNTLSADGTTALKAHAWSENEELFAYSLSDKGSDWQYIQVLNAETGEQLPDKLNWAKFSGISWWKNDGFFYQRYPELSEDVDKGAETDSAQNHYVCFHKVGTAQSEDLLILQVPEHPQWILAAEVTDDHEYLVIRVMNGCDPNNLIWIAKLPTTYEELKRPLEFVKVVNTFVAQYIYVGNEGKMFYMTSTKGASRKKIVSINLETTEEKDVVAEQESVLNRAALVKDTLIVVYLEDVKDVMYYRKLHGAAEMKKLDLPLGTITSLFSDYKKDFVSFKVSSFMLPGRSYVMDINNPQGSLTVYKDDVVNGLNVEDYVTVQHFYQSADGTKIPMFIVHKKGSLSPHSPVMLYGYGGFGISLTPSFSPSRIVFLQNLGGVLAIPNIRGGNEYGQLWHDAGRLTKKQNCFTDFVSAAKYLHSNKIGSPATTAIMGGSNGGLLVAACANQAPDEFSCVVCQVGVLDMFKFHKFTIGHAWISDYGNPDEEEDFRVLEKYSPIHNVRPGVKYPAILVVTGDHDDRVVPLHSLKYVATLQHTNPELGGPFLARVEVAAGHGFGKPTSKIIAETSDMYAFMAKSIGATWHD

| Structure (SMILES) | inhibition at 100 µM [%] | inhibition at 100 µM (read-out: Inhibition (%)) [%] |
| --- | --- | --- |
| Cc1ccc(S(=O)(=O)N[C@@H](CCCCN)C(=O)CCl)cc1 [TLCK, N-α-Tosyl-L-lysine chloromethyl ketone hydrochloride] | 96.8 |  |
| Cc1ccc(S(=O)(=O)N[C@@H](Cc2ccccc2)C(=O)CCl)cc1 [TPCK, N-p-Tosyl-L-phenylalanine chloromethyl ketone] |  | 92.3 |
